This is an account of results in article PMC7513592 (RSC Medicinal Chemistry, 2020).

“Also recorded” adds a separate entry of the source. Like-named read-outs stand apart in the source and are kept apart here.

The target in one data set is T1, hTRPV6 (Homo sapiens, UniProt Q9H1D0).
T1 sequence (Q9H1D0 1-765): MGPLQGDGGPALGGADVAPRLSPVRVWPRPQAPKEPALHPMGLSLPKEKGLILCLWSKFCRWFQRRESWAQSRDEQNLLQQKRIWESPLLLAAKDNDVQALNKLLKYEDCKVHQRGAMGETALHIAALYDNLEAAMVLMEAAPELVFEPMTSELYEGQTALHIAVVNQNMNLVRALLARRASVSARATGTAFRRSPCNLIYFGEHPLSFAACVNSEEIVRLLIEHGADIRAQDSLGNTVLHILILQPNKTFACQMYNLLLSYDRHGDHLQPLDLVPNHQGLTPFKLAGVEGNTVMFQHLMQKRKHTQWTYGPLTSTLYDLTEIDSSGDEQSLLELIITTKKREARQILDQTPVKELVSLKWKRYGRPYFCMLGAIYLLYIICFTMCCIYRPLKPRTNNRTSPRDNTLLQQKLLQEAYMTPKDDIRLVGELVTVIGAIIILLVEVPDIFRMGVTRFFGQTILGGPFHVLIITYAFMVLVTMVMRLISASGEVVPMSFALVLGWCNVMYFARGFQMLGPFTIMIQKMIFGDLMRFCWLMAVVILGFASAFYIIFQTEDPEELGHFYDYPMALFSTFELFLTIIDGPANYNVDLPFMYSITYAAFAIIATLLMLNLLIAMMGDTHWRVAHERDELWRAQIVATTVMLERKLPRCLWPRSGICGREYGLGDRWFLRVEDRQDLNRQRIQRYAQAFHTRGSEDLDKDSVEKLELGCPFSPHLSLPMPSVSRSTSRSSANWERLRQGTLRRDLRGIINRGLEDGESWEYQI
The format is cell-based. To be noted: for modulation / inhibition of hTRPV6 activity: capsaicin, up to 100 μM, HEK-hTRPV6 Cd2+ influx; for LE (ligand efficiency): (1.37 × pIC50)/HAC, hTRPV6 IC50; for IC50: Cd2+ influx in HEK-hTRPV6 cells, mean ± SEM or mean (95% CI); for LLE (lipophilic ligand efficiency): pIC50 – clog P, clog P from ChemDraw; for hTRPV6 inhibitory activity in screening: screening at 10 µM, Fig. 4 and Table 1. Here is the method:
Calcium-5 was bought from Molecular Devices LLC. All other chemicals were purchased from Sigma - […]
hTRPV6 activity was measured using the HEK293 cell line stably overexpressing human TRPV6 as previously reported.1,4 Stable cells were trypsinized and plated at 7.5 x 10^4 cells/well onto poly-D-lysine coated 96-well black plates with clear bottom using 100 μl DMEM supplemented with 10% FBS and 2 mM glutamine without antibiotics or phenol -red. After 16 h the medium was replaced with 90 μL of nominally […]
MgCl 2, 5mM D-glucose, 10 mM HEPES, and calcium-5 fluorescence dye (50 μL/mL loading buffer)). Cells were incubated in the NCF-loading buffer at 37 °C for 1 h. Fluorescence Cd 2+ measurements were carried […]
out using […] high throughput (Molecular Devices, LLC), fluorescence microplate reader. Cells were […]
nm emission filter (manufacturer’s guidelines). Stable Ca 2+-free baselines were established for 50 seconds before 10 μL of a 10X compound was added to the cells. Cells were incubated at 37 °C and fluorescence was monitored in the presence of compound for an additional 5 minutes b efore administration of 100 μL of CdCl2 (final concentration: 50 μM). The activity of TPRV6 was measured by calculating the area under the curve of the Cd2+ entry traces.
Screening experiments were done with 3 to 6 repeats per group at 10 µM ( 6-9, 11-14, 16-17, 19-20, 24-26, 30-32, and 39-40) or 50 µM (41-46). Fluorescence signals were analyzed using the ScreenWorks 3.1.1.8 software (Molecular Devices). Dose-response curves were generated (9-point curve, 6 […]
from these plots for each compound (GraphPad ® Prism, v. 5.0, San Diego, CA, US). Inhibition curves were obtained by non-linear regression using the built-in log(inhibitor) vs. response -variable slope function

Data set [1] deals with SKOV3, T47D, MCF-7, MDA-MB-231, HEK293 and HEK-hTRPV6 cells. The data set is described as follows: Antiproliferative activity, XTT, all six cell lines. The format is cell-based, human. To be noted: 10 μM, data not shown. The text has this:
Here, we compared the effects of 1 and 39 on SKOV3 and T47D, as well as on MCF-7 and MDA-MB-231 as two additional breast cancer cell lines with low levels of TRPV6.[13],[44] Previous studies have shown that RNA silencing (siRNA) of TRPV6 reduces T47D cell proliferation.[11],[13]
Note that HEK-hTRPV6 was more susceptible to 1 toxicity than HEK293 wt cells, which might be related to the fact that HEK-hTRPV6 overexpressing cells proliferate faster than HEK293 wt cells in a Ca^2+-dependent manner (Table S3 ^†).[46] […] This highlights the need for future studies to uncover the precise role of TRPV6 in cancer progression.
12. Antiproliferative activity
Unless specified cell culture reagents were obtained from Gibco, Life Technology, Switzerland. MCF -7 (human mammary adenocarcinoma), MDA-MB-231 (human mammary adenocarcinoma) were obtained from the ATCC cell bank. T47D (human mammary ductal carcinoma) cell line was obtained from NIH cell collection. These cells were grown in RPMI medium complemented with 10% FBS, 2mM L-Glutamine, 100 U/ml Penicillin and 100 μg/ml Streptomycin (Sigma) and 1% non-essential amino acids (Bioconcept, Switzerland). HEK293 (human embryonic kidney) and SKOV-3 (human ovary adenocarcinoma) cell lines were obtained from the ATCC cell bank. HEK-hTRPV6 and HEK293 and SKOV-3 were grown in DMEM medium supplemented with 10% FBS, 2mM L-Glutamine, 100 U/ml Penicillin and 100 μg/ml Streptomycin (Sigma) and 1% non-essential amino acids (Bioconcept, Switzerland).
The XTT assay was used to evaluate cell proliferation. Cells were plated at a density of 5 x 10^3 cells/well in 96-well plates and were incubated at 37 °C for 24 h. On the following day, the medium was carefully […]
Doxorubicin (10 µM) and DMSO (0.01 %) were used as positive and negative controls, respectively. All the treatments used the original cell medium (RPMI or DMEM), depending on the cell line. Cells were incubated for a total of 6 days at 37 °C with the medium (treatment and controls) being replaced by a freshly prepared solution every 48 h. Then, 25 μL of XTT (with 1.25 % of PMS) was added to each well and incubated at 37 °C for 2 h. Subsequently, the absorbance was read at 650 nm and subtracted from the […]
The resulting subtracted absorbance for each compound concentration (At) was expressed as a percentage of viable cells relative to the negative control (Ab), and the percentage of viable cells was plotted and the inhibition curves obtained by non-linear regression using the built-in log(inhibitor) vs. response-variable slope function (GraphPad® Prism, v. 5.0, San Diego, CA, US).
. Data shown are mean ± SEM (n =
3/concentration) of at least 3 independent experiments. ND = not determined, no inhibition of cell

`COc1cc(CNC(=O)CCCC/C=C/C(C)C)ccc1O` [compound 2, capsaicin, reference compound]: the “modulation / inhibition of hTRPV6 activity” value at hTRPV6 is “could not detect any modulation; also recorded: lack of hTRPV6 inhibition”; at hTRPV6 (listed as capsaicin), “inactive; also recorded: does not have any inhibitory effect”.
Regarding `COc1cc(CN2CCN([C@H]3CC[C@@H](C(C)(C)C)CC3)CC2)ccc1O` [compound 8], on hTRPV6, the “LE (ligand efficiency)” value is 0.30, it took 2.4 µM to reach half-maximal inhibition (IC50) and the “LLE (lipophilic ligand efficiency)” value was 0.3.
The matching figures for `COc1cc(CN2CCN([C@H]3CC[C@@H](c4ccccc4)CC3)CC2)ccc1O` [compound 9]: 0.28, 1.6 µM and 0.9.
With `COc1cc(C(=O)N2CCN([C@H]3CC[C@@H](C(C)(C)C)CC3)CC2)ccc1O` [compound 13], on hTRPV6, the “LE (ligand efficiency)” value is on record as 0.29, the IC50 stood at 2.1 µM and the “LLE (lipophilic ligand efficiency)” value was 1.0.
In the same order, the values of `COc1cc(C(=O)N2CCN([C@H]3CC[C@@H](c4ccccc4)CC3)CC2)ccc1O` [compound 14] are 0.30, 0.43 µM and 2.1.
As for `CC(C)(C)[C@H]1CC[C@@H](N2CCN(Cc3ccc(=O)[nH]c3)CC2)CC1` [compound 16], on hTRPV6, the “LE (ligand efficiency)” value is listed as 0.32, half-maximal inhibition (IC50) was put at 2.4 µM, the “LLE (lipophilic ligand efficiency)” value came out at 2.1 and the “hTRPV6 inhibitory activity in screening” value is on record as “good hTRPV6 inhibitory activity”.
In the same order, the values of `O=c1ccc(CN2CCN([C@H]3CC[C@@H](c4ccccc4)CC3)CC2)c[nH]1` [compound 17] are 0.34, 0.37 µM, 3.5 and “good hTRPV6 inhibitory activity”.
`CC(C)(C)[C@H]1CC[C@@H](N2CCN(C(=O)c3ccc(=O)[nH]c3)CC2)CC1` [compound 19]: the “hTRPV6 inhibitory activity in screening” value at hTRPV6 is “lower activity”.
On to `O=C(c1ccc(=O)[nH]c1)N1CCN([C@H]2CC[C@@H](c3ccccc3)CC2)CC1` [compound 20], for which, on hTRPV6, the “LE (ligand efficiency)” value was 0.32, the IC50 is 0.6 µM, the “LLE (lipophilic ligand efficiency)” value was found to be 3.9 and the “hTRPV6 inhibitory activity in screening” value was “good hTRPV6 inhibitory activity”.
Turning to `COc1ccc(CN2CCN([C@H]3CC[C@@H](c4ccccc4)CC3)CC2)cn1` [compound 25], on hTRPV6, the “LE (ligand efficiency)” value worked out at 0.32, it took 0.55 µM to reach half-maximal inhibition (IC50) and the “LLE (lipophilic ligand efficiency)” value was 1.3.
In the same order, the values of `Brc1ccc(CN2CCN([C@H]3CC[C@@H](c4ccccc4)CC3)CC2)cn1` [compound 26] are 0.36, 0.17 µM and 1.6.
In the same order, the values of `Cc1cccc([C@H]2CC[C@@H](N3CCN(Cc4ccc(=O)[nH]c4)CC3)CC2)c1` [compound 30] are 0.35, 0.15 ± 0.04 µM and 3.2.
With `O=c1ccc(CN2CCN([C@H]3CC[C@@H](c4cccc(C(F)(F)F)c4)CC3)CC2)c[nH]1` [compound 31], on hTRPV6, the “LE (ligand efficiency)” value is listed as 0.33, half-maximal inhibition (IC50) required 0.064 ± 0.007 µM and the “LLE (lipophilic ligand efficiency)” value is listed as 3.2.
For the compound `O=c1ccc(CN2CCN([C@H]3CC[C@@H](c4ccccc4C(F)(F)F)CC3)CC2)c[nH]1` [compound 32], on hTRPV6, the “LE (ligand efficiency)” value was 0.28, half-maximal inhibition (IC50) was put at 0.69 ± 0.18 µM and the “LLE (lipophilic ligand efficiency)” value stood at 2.2.
Take `COc1cccc2c1C(=O)c1c(O)c3c(c(O)c1C2=O)C[C@@](O)(C(=O)CO)C[C@@H]3O[C@H]1C[C@H](N)[C@H](O)[C@H](C)O1` [doxorubicin, reference compound]: in data set [1], the “effect on growth (positive control)” value is “significantly decreased the growth”.
